Results from DBAASP.
Values after ≈ are worked out from the molar mass of the structure shown.

Experiments:
Assay in all cases: ≥ marks a high value that may be exact or a test limit, other limits are often not marked, values filed in µg/mL are converted to µM
[1] = test system: Acinetobacter baumannii Ab1408
[2] = test system: Acinetobacter baumannii Ab5753
[3] = test system: Acinetobacter baumannii Ab5755
[4] = test system: Acinetobacter baumannii ICB 14067
[5] = test system: Acinetobacter baumannii ICB 14073
[6] = test system: Acinetobacter baumannii ICB 9250
[7] = test system: Acinetobacter baumannii M17
[8] = test system: Bacillus subtilis ATCC 63501
[9] = test system: Enterobacter cloacae 34654
[10] = test system: Enterobacter cloacae Ha088
[11] = test system: Enterobacter cloacae Ha089
[12] = test system: Enterobacter cloacae Ha89
[13] = test system: Escherichia coli ATCC 25922 ΔsbmA
[14] = test system: Escherichia coli ATCC 25922
[15] = test system: Escherichia coli BL21AI
[16] = test system: Escherichia coli Ec513
[17] = test system: Escherichia coli MC1061
[18] = test system: Escherichia coli Neumann
[19] = test system: Escherichia coli O157:H7
[20] = test system: Klebsiella pneumoniae 57 USA
[21] = test system: Klebsiella pneumoniae ATCC 10031
[22] = test system: Klebsiella pneumoniae ATCC 12657
[23] = test system: Klebsiella pneumoniae ATCC 27799
[24] = test system: Klebsiella pneumoniae CMCC 46117
[25] = test system: Micrococcus luteus ATCC 10240
[26] = test system: Proteus vulgaris ICB 9081
[27] = test system: Proteus vulgaris ICB 9095
[28] = test system: Pseudomonas aeruginosa DSM 3227
[29] = test system: Pseudomonas aeruginosa Walter
[30] = test system: Pseudomonas aeruginosa
[31] = test system: Shigella dysenteriae CMCC 51252
[32] = test system: Shigella flexneri ATCC 12022
[33] = test system: Staphylococcus aureus Sa1390
[34] = test system: Stenotrophomonas sp. ICB 308054
[35] = test system: Stenotrophomonas sp. ICB 7569
[36] = test system: Stenotrophomonas sp. ICB 7789

## CC[C@H](C)[C@H](NC(=O)[C@H](CCCN=C(N)N)NC(=O)[C@H](CCCN=C(N)N)NC(=O)[C@@H]1CCCN1C(=O)[C@@H]1CCCN1C(=O)[C@H](CCCN=C(N)N)NC(=O)[C@@H]1CCCN1C(=O)[C@H](CCCN=C(N)N)NC(=O)[C@@H]1CCCN1C(=O)[C@H](CC(C)C)NC(=O)[C@H](Cc1ccc(O)cc1)NC(=O)[C@@H]1CCCN1C(=O)[C@@H]1CCCN1C(=O)[C@H](CCCCN)NC(=O)[C@H](CC(=O)O)NC(=O)[C@@H](N)C(C)C)C(=O)N[C@@H](Cc1ccc(O)cc1)C(=O)N[C@@H](CC(N)=O)C(=O)N[C@@H](CCCN=C(N)N)C(N)=O [VDKPPYLPRPRPPRRIYNR]
[1]
  MIC: ≥ 53.5 µM
[2]
  MIC: ≥ 53.5 µM
[3]
  MIC: ≥ 53.5 µM
[4]
  MIC: 0.418 µM (≈ 1 µg/mL)
[5]
  MIC: 0.837 µM (≈ 2 µg/mL)
[6]
  MIC: 0.209 µM (≈ 0.5 µg/mL)
[7]
  MIC: 0.418 µM (≈ 1 µg/mL)
[8]
  MIC: ≥ 512 µM
[9]
  MIC: 0.105 µM (≈ 0.25 µg/mL)
[10]
  MIC: 0.0523 µM (≈ 0.125 µg/mL)
[11]
  MIC: 0.0523 µM (≈ 0.125 µg/mL)
[12]
  MIC: 0.105 µM (≈ 0.25 µg/mL)
[13]
  MIC: 16 µM (≈ 38.2 µg/mL)
[14]
  MIC: 8 µM (≈ 19.1 µg/mL)
[15]
  MIC: 1.67 µM (≈ 4 µg/mL)
[16]
  MIC: ≥ 53.5 µM
[17]
  MIC: 0.126 µM (≈ 0.3 µg/mL)
[18]
  MIC: 0.837 µM (≈ 2 µg/mL)
[19]
  MIC: 1.31 µM (≈ 3.14 µg/mL)
[20]
  MIC: 0.105 µM (≈ 0.25 µg/mL)
[21]
  MIC: 4 µM (≈ 9.56 µg/mL)
[22]
  MIC: 0.209 µM (≈ 0.5 µg/mL)
[23]
  MIC: 0.418 µM (≈ 1 µg/mL)
[24]
  MIC: 2 µM (≈ 4.78 µg/mL)
[25]
  MIC: 3.35 µM (≈ 8 µg/mL)
[26]
  MIC: 1.67 µM (≈ 4 µg/mL)
[27]
  MIC: 1.67 µM (≈ 4 µg/mL)
[28]
  MIC: 1.67 µM (≈ 4 µg/mL)
[29]
  MIC: 3.35 µM (≈ 8 µg/mL)
[30]
  MIC: 1.18 µM (≈ 2.83 µg/mL)
[31]
  MIC: 8 µM (≈ 19.1 µg/mL)
[32]
  MIC: 16 µM (≈ 38.2 µg/mL)
[33]
  MIC: ≥ 53.5 µM
[34]
  MIC: 13.4 µM (≈ 32 µg/mL)
[35]
  MIC: 3.35 µM (≈ 8 µg/mL)
[36]
  MIC: 13.4 µM (≈ 32 µg/mL)
